A value given as a limit tells only on which side of the number the result lay.

The target of one data set is Acetylcholinesterase (Electrophorus electricus, UniProt O42275).
Assay: not given
Details: not given
Turning to `O=C(CCNCCNc1c2c(nc3ccccc13)CCCC2)Nc1ccc2c(c1)C(=O)c1cccc3ccnc-2c13`, the half-maximal inhibitory concentration (IC50) (usually the concentration needed to halve the response being measured) amounted to 3.4 nM.

As for `O=C(CNCCNc1c2c(nc3ccccc13)CCCC2)Nc1ccc2c(c1)C(=O)c1cccc3ccnc-2c13`, the IC50 was 41 nM. Against the preceding compound, the IC50 is about 12-fold higher.

For the compound `O=C(CCNCCCNc1c2c(nc3ccccc13)CCCCC2)Nc1ccc2c(c1)C(=O)c1cccc3ccnc-2c13`, inhibition was half-maximal at 260 nM (IC50).

As for `Nc1ccc2c(c1)C(=O)c1cccc3ccnc-2c13`, the concentration for half-maximal inhibition (IC50) is above 100000 nM.

In turn, `O=C(CNCCNc1c2c(nc3ccccc13)CCCCC2)Nc1ccc2c(c1)C(=O)c1cccc3ccnc-2c13` showed an IC50 of 61 nM.

`O=C(CCNCCCCNc1c2c(nc3ccccc13)CCCCC2)Nc1ccc2c(c1)C(=O)c1cccc3ccnc-2c13` returned an IC50 of 745 nM.

`O=C(CNCCNc1c2c(nc3ccccc13)CCC2)Nc1ccc2c(c1)C(=O)c1cccc3ccnc-2c13` had an IC50 of 513 nM. The IC50 values of the last two compounds are within 1.5-fold of each other.

`O=C(CCNCCCCNc1c2c(nc3ccccc13)CCCC2)Nc1ccc2c(c1)C(=O)c1cccc3ccnc-2c13` yielded a half-inhibitory concentration (IC50) of 182 nM.

Consider `O=C(CCNCCCNc1c2c(nc3ccccc13)CCC2)Nc1ccc2c(c1)C(=O)c1cccc3ccnc-2c13`, for which the IC50 is 411 nM.

`O=C(CCNCCCCNc1c2c(nc3ccccc13)CCC2)Nc1ccc2c(c1)C(=O)c1cccc3ccnc-2c13` came in with an IC50 of 910 nM.

With `O=C(CCNCCCNc1c2c(nc3ccccc13)CCCC2)Nc1ccc2c(c1)C(=O)c1cccc3ccnc-2c13`, half-maximal inhibition (IC50) was put at 57.1 nM.

In turn, `O=C(CCNCCNc1c2c(nc3ccccc13)CCC2)Nc1ccc2c(c1)C(=O)c1cccc3ccnc-2c13` displayed a 50% inhibitory concentration (IC50) of 422 nM.

As for `O=C(CCNCCNc1c2c(nc3ccccc13)CCCCC2)Nc1ccc2c(c1)C(=O)c1cccc3ccnc-2c13`, the IC50 came to 51.7 nM.

Another data set concerns the target Cholinesterase (Equus caballus, UniProt P81908).
Assay: not given
Details: not given
Compound `O=C(CCNCCNc1c2c(nc3ccccc13)CCCC2)Nc1ccc2c(c1)C(=O)c1cccc3ccnc-2c13` had an IC50 of 110 nM.

For the compound `O=C(CNCCNc1c2c(nc3ccccc13)CCCC2)Nc1ccc2c(c1)C(=O)c1cccc3ccnc-2c13`, the IC50 is 433 nM.

The compound `O=C(CCNCCCNc1c2c(nc3ccccc13)CCCCC2)Nc1ccc2c(c1)C(=O)c1cccc3ccnc-2c13` registered an IC50 of 21.1 nM.

Compound `Nc1ccc2c(c1)C(=O)c1cccc3ccnc-2c13` returned an IC50 above 100000 nM.

The compound `O=C(CNCCNc1c2c(nc3ccccc13)CCCCC2)Nc1ccc2c(c1)C(=O)c1cccc3ccnc-2c13` registered an IC50 of 211 nM.

In turn, `O=C(CCNCCCCNc1c2c(nc3ccccc13)CCCCC2)Nc1ccc2c(c1)C(=O)c1cccc3ccnc-2c13` registered an IC50 of 150 nM. The IC50 values of the last two compounds are within 1.5-fold of each other.

`O=C(CNCCNc1c2c(nc3ccccc13)CCC2)Nc1ccc2c(c1)C(=O)c1cccc3ccnc-2c13` gave an IC50 of 243 nM.

Compound `O=C(CCNCCCCNc1c2c(nc3ccccc13)CCCC2)Nc1ccc2c(c1)C(=O)c1cccc3ccnc-2c13` yielded an IC50 of 288 nM.

`O=C(CCNCCCNc1c2c(nc3ccccc13)CCC2)Nc1ccc2c(c1)C(=O)c1cccc3ccnc-2c13` had an IC50 of 399 nM.

In turn, `O=C(CCNCCCCNc1c2c(nc3ccccc13)CCC2)Nc1ccc2c(c1)C(=O)c1cccc3ccnc-2c13` gave an IC50 of 199 nM. This IC50 lies about 2-fold lower than the previous one.

With `O=C(CCNCCCNc1c2c(nc3ccccc13)CCCC2)Nc1ccc2c(c1)C(=O)c1cccc3ccnc-2c13`, the IC50 turned out to be 199 nM.

On to `O=C(CCNCCNc1c2c(nc3ccccc13)CCC2)Nc1ccc2c(c1)C(=O)c1cccc3ccnc-2c13`, for which inhibition was half-maximal at 1760 nM (IC50).

Compound `O=C(CCNCCNc1c2c(nc3ccccc13)CCCCC2)Nc1ccc2c(c1)C(=O)c1cccc3ccnc-2c13` came in with an IC50 of 65 nM.

System in the next data set: not listed separately
The data set is described as follows: in vitro. As to conditions: PAMPA. (In general: In PAMPA a lipid-coated filter parts donor from acceptor wells.)
Description: Permeability of the compound by PAMPA
For the compound `O=C(CCNCCNc1c2c(nc3ccccc13)CCCC2)Nc1ccc2c(c1)C(=O)c1cccc3ccnc-2c13`, the Papp (commonly the rate of passage across a membrane or cell layer, normalised by area and donor concentration) is 2.6 ×10⁻⁶ cm/s.

With `O=C(CNCCNc1c2c(nc3ccccc13)CCCC2)Nc1ccc2c(c1)C(=O)c1cccc3ccnc-2c13`, the Papp was determined as 4.8 ×10⁻⁶ cm/s.

Take `O=C(CCNCCCNc1c2c(nc3ccccc13)CCCCC2)Nc1ccc2c(c1)C(=O)c1cccc3ccnc-2c13`: the apparent permeability coefficient (Papp) was 8.9 ×10⁻⁶ cm/s.

For `O=C(CNCCNc1c2c(nc3ccccc13)CCCCC2)Nc1ccc2c(c1)C(=O)c1cccc3ccnc-2c13`, the Papp is 4 ×10⁻⁶ cm/s.

Regarding `O=C(CCNCCCCNc1c2c(nc3ccccc13)CCCCC2)Nc1ccc2c(c1)C(=O)c1cccc3ccnc-2c13`, the Papp was 1.1 ×10⁻⁶ cm/s. Compared with the last compound, the Papp is about 3.6-fold lower.

Turning to `O=C(CNCCNc1c2c(nc3ccccc13)CCC2)Nc1ccc2c(c1)C(=O)c1cccc3ccnc-2c13`, the Papp was 4.6 ×10⁻⁶ cm/s. Against the preceding compound, the Papp is about 4.2-fold higher.

Turning to `O=C(CCNCCCCNc1c2c(nc3ccccc13)CCCC2)Nc1ccc2c(c1)C(=O)c1cccc3ccnc-2c13`, the Papp was 2.1 ×10⁻⁶ cm/s.

`O=C(CCNCCCNc1c2c(nc3ccccc13)CCC2)Nc1ccc2c(c1)C(=O)c1cccc3ccnc-2c13` gave a Papp of 4.9 ×10⁻⁶ cm/s.

In turn, `O=C(CCNCCCCNc1c2c(nc3ccccc13)CCC2)Nc1ccc2c(c1)C(=O)c1cccc3ccnc-2c13` displayed a Papp of 2.4 ×10⁻⁶ cm/s.

Take `O=C(CCNCCCNc1c2c(nc3ccccc13)CCCC2)Nc1ccc2c(c1)C(=O)c1cccc3ccnc-2c13`: the Papp was 3.3 ×10⁻⁶ cm/s.

The compound `O=C(CCNCCNc1c2c(nc3ccccc13)CCC2)Nc1ccc2c(c1)C(=O)c1cccc3ccnc-2c13` displayed a Papp of 1.9 ×10⁻⁶ cm/s.

`O=C(CCNCCNc1c2c(nc3ccccc13)CCCCC2)Nc1ccc2c(c1)C(=O)c1cccc3ccnc-2c13` showed a Papp of 7.9 ×10⁻⁶ cm/s.
